Target: T1, VCAM-1 (Mus musculus, UniProt P29533)
T1 construct: from tissue; host or cells: liver of Balb/c mice in vivo, Con-A-induced hepatitis
T1 sequence (P29533 25-739): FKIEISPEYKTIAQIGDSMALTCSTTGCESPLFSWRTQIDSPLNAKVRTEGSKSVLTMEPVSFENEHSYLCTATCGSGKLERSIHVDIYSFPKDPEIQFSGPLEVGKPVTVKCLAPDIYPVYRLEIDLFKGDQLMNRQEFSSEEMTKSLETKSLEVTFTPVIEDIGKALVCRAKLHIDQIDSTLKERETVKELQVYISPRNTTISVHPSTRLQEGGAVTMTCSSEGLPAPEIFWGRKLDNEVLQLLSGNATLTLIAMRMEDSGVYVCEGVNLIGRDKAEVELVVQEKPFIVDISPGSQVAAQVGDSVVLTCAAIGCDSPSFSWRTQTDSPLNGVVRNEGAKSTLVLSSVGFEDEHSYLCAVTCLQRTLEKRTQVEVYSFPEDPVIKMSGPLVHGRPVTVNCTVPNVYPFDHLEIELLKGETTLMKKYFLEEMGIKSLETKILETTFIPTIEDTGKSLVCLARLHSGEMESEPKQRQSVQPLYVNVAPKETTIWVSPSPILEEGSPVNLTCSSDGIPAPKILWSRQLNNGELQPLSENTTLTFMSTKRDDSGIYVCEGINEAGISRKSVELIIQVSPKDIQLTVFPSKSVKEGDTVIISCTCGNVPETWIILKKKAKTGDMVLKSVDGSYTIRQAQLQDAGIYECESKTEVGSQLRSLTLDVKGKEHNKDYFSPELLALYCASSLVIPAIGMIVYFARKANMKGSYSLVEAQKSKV
Assay: MRI in vivo on a model of Con-A-induced hepatitis in mice
Conditions: 100 μmol Gd/kg i.v., FIG. 3
Method: Before the MRI acquisition, the mice are anesthetized with pentobarbital. All the experiments are carried out on a 200 MHz Bruker spectrometer (4.7 T) equipped with a vertical magnet and with a microimaging system.
The hepatitis is induced by i.v. injection of 20 mg/kg of Con-A in Balb/c mice weighing approximately 26 g. The literature reports that VCAM-1 is massively expressed in the liver between 4 and 8 hours after the injection of Con-A. The MRI protocol is the following: (1) the precontrast MRI begins 4h30 after the injection of Con-A; (2) the contrast product is injected at the dose of 100 μmol Gd/kg approximately 5 h after the injection of Con-A; (3) several post-contrast acquisitions are carried out for 1 h30 every 7 minutes. […]
For the two models, the SI values are measured in various regions of interest (at the level of the arterial wall of the abdominal aorta or whole liver) using the OSIRIS image analysis software. […] The SI value is measured on all the image slices where the arterial wall and the liver are visible. […] The increase in the signal/noise ratio (% ΔSNR) is calculated according to the following equation: % ΔSNR=[(SIpost/SDnoise)−(SIpre/SDnoise)]/[SIpre/SDnoise]×100 where SDnoise is the standard deviation of the noise measured on a region outside the animal.

SMILES: O=C([O-])CN1CCN(CC(=O)[O-])CCN(CC(=O)O)CCN(CC(=O)[O-])CC1.[Gd+3] [Gd-DOTA]
- change in signal/noise ratio (% ΔSNR) of the liver over time, hepatitis versus healthy mouse: substantially identical
